# Measurements as given in US10065973B2, “Substituted aminothiazolopyrimidinedione for the treatment and prophylaxis of virus infection” (Hoffmann-La Roche Inc., priority 2016, dated 2018).
# System: human hepatocytes
# Assay: Metabolic conversion of prodrugs to active form in human hepatocytes
# Format: in vitro ADME
# Details: active metabolites Example 10-A and penciclovir, respectively
# Excerpt: Metabolism of Prodrugs: Compounds of Formula (II) A study was undertaken to evaluate the metabolic conversion of prodrugs, compounds of formula (II) or (IIa), to compounds of formula (I) or (Ia) of the present invention. The produgs, compounds of formula (II) or (IIa), can be metabolized to the active compound of formula (I) or (Ia) and other compounds of the invention in the body if they are served as prodrugs. Hepatocytes are often used to assess the degree of metabolic conversion of prodrugs in the body of animal or human. A study was undertaken to evaluate the metabolic conversion of prodrug Example 21, Example 22, Example 23, Example 24, Example 25 and Example 26, to the corresponding active form, Example 10-A, in the presence of human hepatocytes. The formation of active form, Example 10-A, was monitored in the study. For comparison, the metabolic conversion of famciclovir to penciclovir was also assessed. Cryopreserved hepatocytes plating medium (Cat.#: PY-HMD-03) was purchased from RILD Research Institute for Liver Diseases (Shanghai) Co. Ltd. Cryopreserved human hepatocyte (Cat.#: X008005, Lot#:VRR) was purchased from BioreclamationIVT (Baltimore, Md.). The stock hepatocyte suspension was prepared from cryopreserved hepatocytes in plating medium at the concentration of 1.8×10^6 cells/mL. Compounds were dissolved in DMSO to make 10 mM stock solutions. 10 μL of the stock solution was diluted to 990 μL plating medium to get a 100 μM working solution. Reaction suspensions were prepared in 24-well cell culture plate by mixing 200 μL of hepatocytes suspension (human) and 200 μL of working solution. The final incubation contained 0.9×10^6 cells/mL and 50 μM compound. The above mixtures were incubated at 37° C. in a humidified 5% CO2 atmosphere, with a 900 rpm shaking. After 180 min of incubation, 200 μL of the incubation mixture was transferred to 1.5 mL tube and quenched with 400 μL stop solution (ice-cold acetonitrile with 0.2 μM Tolbutamide as internal standard). The samples were centrifuged at 14000 rpm for 10 minutes and the resultant supernatants were subjected to LC-MS/MS analysis. The calibration curves were prepared in the following way. To a 200 μL of cell suspension (cell density of 1.8 million cells/mL), 198 μL of hepatocyte plating medium and 2 μL of the appropriate concentration of the compound in DMSO were added. Samples were mixed thoroughly and 200 μL of the mixture was transferred to 400 μL of the stop solution (see above). The standard curve range is from 1 μM to 25 μM. The compounds were quantified on an API5500 […] instrument in the ESI-Positive MRM mode.
row,SMILES,metabolic conversion to active metabolite in human hepatocytes
1,"CC[C@H](O)[C@@H]1C[C@@H]([C@@H](C)OC(C)=O)[C@H](n2c(=O)sc3cnc(N)nc32)O1 [Example 21, [(1R)-1-[(2R,3S,5S)-2-(5-Amino-2-oxo-thiazolo[4,5-d]pyrimidin-3-yl)-5-[(1S)-1-hydroxypropyl]tetrahydrofuran-3-yl]ethyl] acetate]",metabolized to yield the corresponding active metabolites
2,"CC[C@H](OC(C)=O)[C@@H]1C[C@@H]([C@@H](C)O)[C@H](n2c(=O)sc3cnc(N)nc32)O1 [Example 22, [(1S)-1-[(2S,4S,5R)-5-(5-Amino-2-oxo-thiazolo[4,5-d]pyrimidin-3-yl)-4-[(1R)-1-hydroxyethyl]tetrahydrofuran-2-yl]propyl] acetate]",metabolized to yield the corresponding active metabolites
3,"CC[C@H](O)[C@@H]1C[C@@H]([C@@H](C)OC(=O)C(C)C)[C@H](n2c(=O)sc3cnc(N)nc32)O1 [Example 23, [(1R)-1-[(2R,3S,5S)-2-(5-Amino-2-oxo-thiazolo[4,5-d]pyrimidin-3-yl)-5-[(1S)-1-hydroxypropyl]tetrahydrofuran-3-yl]ethyl] 2-methylpropanoate]",metabolized to yield the corresponding active metabolites
4,"CC[C@H](O)[C@@H]1C[C@@H]([C@@H](C)OC(=O)C(C)(C)C)[C@H](n2c(=O)sc3cnc(N)nc32)O1 [Example 24, [(1R)-1-[(2R,3S,5S)-2-(5-Amino-2-oxo-thiazolo[4,5-d]pyrimidin-3-yl)-5-[(1S)-1-hydroxypropyl]tetrahydrofuran-3-yl]ethyl] 2,2-dimethylpropanoate]",metabolized to yield the corresponding active metabolites
5,"CC[C@H](O)[C@@H]1C[C@@H]([C@@H](C)OC(=O)CC(C)C)[C@H](n2c(=O)sc3cnc(N)nc32)O1 [Example 25, [(1R)-1-[(2R,3S,5S)-2-(5-Amino-2-oxo-thiazolo[4,5-d]pyrimidin-3-yl)-5-[(1S)-1-hydroxypropyl]tetrahydrofuran-3-yl]ethyl] 3-methylbutanoate]",metabolized to yield the corresponding active metabolites
6,"CCOC(=O)O[C@H](C)[C@@H]1C[C@@H]([C@@H](O)CC)O[C@H]1n1c(=O)sc2cnc(N)nc21 [Example 26, [(1R)-1-[(2R,3S,5S)-2-(5-Amino-2-oxo-thiazolo[4,5-d]pyrimidin-3-yl)-5-[(1S)-1-hydroxypropyl]tetrahydrofuran-3-yl]ethyl] ethyl carbonate]",metabolized to yield the corresponding active metabolites
7,"CC(=O)OCC(CCn1cnc2cnc(N)nc21)COC(C)=O [Famciclovir, famciclovir, reference compound]",metabolized to yield the corresponding active metabolites
